# In PubChem BioAssay AID328 (DTP/NCI, 2004):
# Where “and” joins values, the source holds several entries; their conditions need not be identical. Equal values may be shown once. Inconclusive results and toxic doses are left out.
# Test system: BDF1 mice, P388 leukemia ip, median survival T/C
# Assay: NCI In Vivo Anticancer Drug Screen. Data for tumor model P388 Leukemia (intraperitoneal) in B6D2F1 (BDF1) mice
# Details: endpoint: median survival time, higher = longer survival
# Outline: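 Reported as T/C, where T is the survival measurement in dosed animals and C the same measurement in vehicle controls.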
# [1] = dose: 100.0 mg/kg/injection, schedule: Q04DX003 (ip), vehicle: saline with Tween-80
# [2] = dose: 200.0 mg/kg/injection, schedule: Q04DX003 (ip), vehicle: saline with Tween-80
# [3] = dose: 400.0 mg/kg/injection, schedule: Q04DX003 (ip), vehicle: saline with Tween-80
# [4] = dose: 25.0 mg/kg/injection, schedule: Q01DX009 (ip), vehicle: saline
# [5] = dose: 100.0 mg/kg/injection, schedule: Q01DX009 (ip), vehicle: saline with Tween-80
# [6] = dose: 200.0 mg/kg/injection, schedule: Q01DX009 (ip), vehicle: saline with Tween-80
structure (smiles),measurement,setting,value
C=CC12COC(=O)C(=C)C1C1OC(=O)C(=C)C1C(O)C2 (stereo not drawn),T/C,"dose: 1.0 mg/kg/injection, schedule: Q01DX009 (ip), vehicle: water",118 % of control
same,T/C,"dose: 2.0 mg/kg/injection, schedule: Q01DX009 (ip), vehicle: water",109 % of control
same,T/C,"dose: 4.6 mg/kg/injection, schedule: Q01DX010 (ip), vehicle: carboxymethylcellulose (CMC)",115 % of control
same,T/C,"dose: 8.0 mg/kg/injection, schedule: Q01DX009 (ip), vehicle: water",113 % of control
same,T/C,"dose: 10.0 mg/kg/injection, schedule: Q01DX009 (ip), vehicle: saline + alcohol",122 % of control
same,T/C,"dose: 125.0 micrograms/kg/injection, schedule: Q01DX010 (ip), vehicle: carboxymethylcellulose (CMC)",95 % of control
same,T/C,"dose: 250.0 micrograms/kg/injection, schedule: Q01DX010 (ip), vehicle: carboxymethylcellulose (CMC)",95 % of control
same,T/C,"dose: 500.0 micrograms/kg/injection, schedule: Q01DX010 (ip), vehicle: carboxymethylcellulose (CMC)",100 % of control
same,T/C,"dose: 1000.0 micrograms/kg/injection, schedule: Q01DX010 (ip), vehicle: carboxymethylcellulose (CMC)",104 % of control
same,T/C,"dose: 2000.0 micrograms/kg/injection, schedule: Q01DX010 (ip), vehicle: carboxymethylcellulose (CMC)",104 % of control
same,T/C,"dose: 4000.0 micrograms/kg/injection, schedule: Q01DX010 (ip), vehicle: carboxymethylcellulose (CMC)",100 % of control
Cc1nnc2n1N=C(c1ccc(-c3ccccc3)cc1)CS2,T/C,[1],104 % of control
same,T/C,[2],92 % of control
same,T/C,[3],93 % of control
CC(=O)[O][Hg][c]1c(C)c(C)cc(C)c1C,T/C,"dose: 12.5 mg/kg/injection, schedule: Q01DX009 (ip), vehicle: saline",108 % of control
same,T/C,[4],121 % of control
Nc1cc(S(=O)(=O)c2ccc(O)c(N)c2)ccc1O,T/C,[5],104 % of control
same,T/C,[1],100 % of control
same,T/C,[6],108 % of control
same,T/C,[2],95 % of control
same,T/C,"dose: 400.0 mg/kg/injection, schedule: Q01DX009 (ip), vehicle: saline with Tween-80",87 % of control
same,T/C,[3],87 % of control
C/C=C(/C)C(=O)O[C@H]1CCN2CC=C(COC(=O)[C@@](O)([C@H](C)OC)C(C)(C)O)[C@H]12,T/C,"dose: 12.5 mg/kg/injection, schedule: Q01DX010 (ip), vehicle: saline",95 % of control
same,T/C,"dose: 25.0 mg/kg/injection, schedule: Q01DX010 (ip), vehicle: saline",100 % of control
O=c1nc(Oc2ccccc2)nc2c3ccccc3ccn12,T/C,"dose: 12.5 mg/kg/injection, schedule: Q01DX009 (ip), vehicle: saline with Tween-80",118 % of control
same,T/C,"dose: 25.0 mg/kg/injection, schedule: Q01DX009 (ip), vehicle: saline with Tween-80",102 % of control
same,T/C,"dose: 50.0 mg/kg/injection, schedule: Q01DX009 (ip), vehicle: saline with Tween-80",112 % of control
same,T/C,[5],114 % of control and 119 % of control
same,T/C,[6],89 % of control
CC(=O)N1c2ccccc2Sc2ccc3ccc(C(=O)CCl)cc3c21,T/C,[5],153 % of control
CC(=O)OCC(=O)[C@@]1(O)CC[C@H]2[C@@H]3CCC4=CC(=O)CC[C@]4(C)[C@@]3(F)[C@@H](O)C[C@@]21C,T/C,"dose: 50.0 mg/kg/injection, schedule: Q01DX009 (sc), vehicle: steriod suspending solution",104 % of control
same,T/C,"dose: 100.0 mg/kg/injection, schedule: Q01DX009 (sc), vehicle: steriod suspending solution",104 % of control
same,T/C,"dose: 100.0 mg/kg/injection, schedule: Q04DX003 (sc), vehicle: steriod suspending solution",115 % of control
same,T/C,"dose: 200.0 mg/kg/injection, schedule: Q04DX003 (sc), vehicle: steriod suspending solution",115 % of control
CC[N+](C)(C)c1ncnc2nc[nH]c12,T/C,[4],91 % of control
same,T/C,"dose: 50.0 mg/kg/injection, schedule: Q01DX009 (ip), vehicle: saline",95 % of control
same,T/C,"dose: 100.0 mg/kg/injection, schedule: Q01DX009 (ip), vehicle: saline",87 % of control and 91 % of control
same,T/C,"dose: 100.0 mg/kg/injection, schedule: Q04DX003 (ip), vehicle: saline",104 % of control
same,T/C,"dose: 200.0 mg/kg/injection, schedule: Q01DX009 (ip), vehicle: saline",95 % of control
same,T/C,"dose: 200.0 mg/kg/injection, schedule: Q04DX003 (ip), vehicle: saline",104 % of control
CC(=O)CC(c1ccc2c(c1)OCO2)c1c(O)c2ccccc2oc1=O (stereo not drawn),T/C,"dose: 0.39 mg/kg/injection, schedule: Q01DX009 (ip), vehicle: saline",88 % of control
same,T/C,"dose: 0.78 mg/kg/injection, schedule: Q01DX009 (ip), vehicle: saline",106 % of control
same,T/C,"dose: 0.78 mg/kg/injection, schedule: Q04DX003 (ip), vehicle: saline",89 % of control
same,T/C,"dose: 1.56 mg/kg/injection, schedule: Q01DX009 (ip), vehicle: saline",106 % of control
same,T/C,"dose: 1.56 mg/kg/injection, schedule: Q04DX003 (ip), vehicle: saline",98 % of control
same,T/C,"dose: 3.12 mg/kg/injection, schedule: Q04DX003 (ip), vehicle: saline",89 % of control
same,T/C,"dose: 6.25 mg/kg/injection, schedule: Q04DX003 (ip), vehicle: saline",89 % of control
same,T/C,"dose: 12.5 mg/kg/injection, schedule: Q04DX003 (ip), vehicle: saline",102 % of control
